Data published in patent US20250064804A1, “COMBINATION THERAPY FOR TREATING ABNORMAL CELL GROWTH” (Verastem, Inc., priority 2021, published 2025).

Experiments:
[1] = test system: Human KRAS mutant pancreatic cancer cell lines stably expressing a tandem fluorescent GFP-LC3-RFP-LC3ΔG reporter; assay: Autophagic flux (GFP-LC3-RFP-LC3ΔG reporter, flow cytometry); type: cell-based; details: 1 μM avutometinib, 24 hours, vs vehicle (DMSO); all 3 cell lines tested; 2D conditions
Procedure: Human KRAS mutant pancreatic cancer cell lines stably expressing a tandem fluorescent GFP-LC3-RFP-LC3ΔG reporter were grown in 2D conditions. Briefly, cells were seeded in 96-well plates and after an overnight incubation (17-22 hours), cells were treated with 1 μM of the RAF/MEK clamp avutometinib (VS-6766) for 24 hours. Following treatment, cells were collected and changes in autophagic flux were measured by flow cytometry. Autophagic flux was quantified by calculating the ratio of RFP/GFP in cell lines tested. Autophagic flux was assessed in a panel of 3 human KRAS mutant pancreatic cancer cell lines stably expressing a tandem fluorescent GFP-LC3-RFP-LC3ΔG reporter (FIG. 1). […] In FIG. 1, human KRAS mutant pancreatic cancer cell lines stably expressing a tandem fluorescent GFP-LC3-RFP-LC3ΔG reporter were treated with vehicle (DMSO) or avutometinib for 24 hours. Following treatment, cells were collected and changes in autophagic flux were measured by flow cytometry. Autophagic flux was quantified by calculating the ratio of RFP/GFP in cell lines tested.

[2] = test system: human KRAS mutant pancreatic cancer cell lines; assay: Proliferation assay (live cell counting) with Bliss synergy analysis; type: cell-based; details: 5 days, panel of 4 cell lines, 2D conditions
Procedure: Parental human KRAS mutant pancreatic cancer cell lines were grown in 2D conditions. Briefly, cells were seeded in 96-well plates and after an overnight incubation (17-22 hours), cells were treated with the RAF/MEK clamp avutometinib (VS-6766)+/− the autophagy pathway inhibitor chloroquine (CQ) or apilimod (AP) for 5 days. Following drug treatment, live cell counting was performed and plotted to quantify effects on proliferation. Bliss synergy analysis were performed to calculate synergy scores between avutometinib+chloroquine and avutometinib+apilimod.
Proliferation assays were performed to determine whether chloroquine (CQ) or apilimod (AP) augmented the anti-proliferative activity of avutometinib in a panel of 4 human KRAS mutant pancreatic cancer cell lines (FIG. 2). Following drug treatment, live cell counting was performed and plotted to quantify effects on proliferation. Heatmaps indicating BLISS synergy scores are shown (Red=synergy, white=additivity, green=antagonism).

For CNS(=O)(=O)Nc1nccc(Cc2c(C)c3ccc(Oc4ncccn4)cc3oc2=O)c1F [avutometinib], the “increase of autophagic flux (ratio of RFP/GFP)” value [1] was “two-to six”, the “Bliss synergy with apilimod in reducing cell viability” value ([2]; avutometinib + apilimod (AP)) was “synergistic” and the “Bliss synergy with chloroquine in reducing cell viability” value ([2]; avutometinib + chloroquine (CQ)) was “synergistic”.
